Legend:
BXPC-3 = test: Antiproliferative activity against human BxPC3 cell line by MTT assay; type: functional, cell-based
BT-20 = test: Antiproliferative activity against human BT20 cell line by MTT assay; type: functional, cell-based
[1] = molecular target: RAC-alpha serine/threonine-protein kinase (Homo sapiens, UniProt P31749); test: Inhibition of Akt by fluorescence polarization assay
PC-3 = test: Antiproliferative activity against human PC3 cell line by MTT assay; type: functional, cell-based
COLO357 = test: Antiproliferative activity against human COLO357 cell line by MTT assay; type: functional, cell-based

Chain of RAC-alpha serine/threonine-protein kinase (P31749 whole entry): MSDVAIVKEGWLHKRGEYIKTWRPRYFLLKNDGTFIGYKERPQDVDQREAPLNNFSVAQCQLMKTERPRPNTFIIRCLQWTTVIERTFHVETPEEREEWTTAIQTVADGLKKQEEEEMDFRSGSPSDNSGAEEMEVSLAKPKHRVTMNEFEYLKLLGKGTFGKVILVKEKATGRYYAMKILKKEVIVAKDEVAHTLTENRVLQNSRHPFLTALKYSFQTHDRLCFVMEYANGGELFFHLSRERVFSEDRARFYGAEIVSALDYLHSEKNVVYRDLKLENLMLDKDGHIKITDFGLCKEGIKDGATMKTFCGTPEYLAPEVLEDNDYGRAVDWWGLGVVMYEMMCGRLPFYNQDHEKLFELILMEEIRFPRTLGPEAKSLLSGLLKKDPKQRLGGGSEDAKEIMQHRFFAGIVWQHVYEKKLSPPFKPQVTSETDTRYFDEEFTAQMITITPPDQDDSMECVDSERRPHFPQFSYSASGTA

- IC50 (BXPC-3): 30 µM
- IC50 (BT-20): 46 µM
- IC50 [1]: > 70 µM
- IC50 (PC-3): 50 µM
- IC50 (COLO357): 50 µM
Compound: O=c1c(-c2ccc(O)cc2)coc2cc(O)cc(O)c12 [GENISTEIN]

— ChEMBL document CHEMBL1138054, “Synthesis, molecular characterization, and biological activity of novel synthetic derivatives of chromen-4-one in human cancer cells” (J Med Chem, 2006)
